Assay results published in patent publication US20250064990A1, “METHODS OF SCREENING FOR VMAT2 INHIBITORS” (Neurocrine Biosciences, Inc., priority 2021, published 2025).
Values after ≈ are worked out from the molar mass of the structure shown. Where two headings read alike, the source gives them in different places.

Target: VMAT2 (Homo sapiens, UniProt Q05940)
Assay: VMAT2 target occupancy of single oral doses of NBI-750142 in healthy adult male subjects, [^18F]AV-133 PET
Assay type: in vivo
Parameters: from tissue; host or cells: brain (caudate, putamen, midbrain) of living healthy adult male subjects
Conditions: for [^18F]AV-133 BPND T2 / NBI-750142 T2 Occ: T2 (18 h post dose); for NBI-750142 T1 Occ / [^18F]AV-133 BPND T1: T1 ([…] post dose); for EC50: read-out: EC50 (NBI-750142 plasma concentration vs VMAT2 striatal occupancy) (converted)
Protocol: This study was conducted to evaluate the brain penetration and target engagement of VMAT2 after single oral doses of NBI-750142 in healthy subjects. This PET study assessed the engagement of NBI-750142 with VMAT2 in vivo at two time-points after dosing. A sequential-cohort design allowed for the safety, target-occupancy, and available pharmacokinetic (PK) data from each prior cohort to be evaluated before selection of the dose level for the next cohort. A range of NBI-750142 doses (max. 200 mg) were studied to explore the relationship between NBI-750142 plasma concentrations and engagement of VMAT2 in selected brain regions.
This was a Phase 1 single-center, open-label, single-dose, target occupancy study of NBI-750142 in up to 12 healthy male subjects using [^18F]AV-133 PET imaging. […] A total of 12 subjects completed the study. Subjects enrolled in the study were required to report to the clinical research site for 4 separate occasions, detailed below.
Two subjects were initially enrolled in each dose cohort. Each subject received one brain structural magnetic resonance imaging (MRI) scan during screening and up to 3 [^18F]AV-133 PET scans (1 baseline and up to 2 follow-up scans after receiving a single dose of NBI-750142). Subjects enrolled in the first cohort received a single dose of 100 mg of NBI-750142 orally on Day 1. PET scans occurred on Day 1 at approximately 1.5 hours post NBI-750142 dose and on Day 2 at approximately 18 hours post NBI-750142 dose. Subjects were then discharged from the study center after all Day 3 procedures and assessments were completed.
Subjects were administered a single dose of [^18F]AV-133 intravenously over 3 minutes using an infusion pump (approximately 3.33 mL per minute) through a venous catheter followed by a 10 mL saline flush. Dynamic PET imaging of the brain was acquired over 120 min following radiotracer injection on a Siemens Biograph 6 PET/CT camera according to the following protocol: • CT scan of the head • [^18F]AV-133 injection (T=0 min) • Emission scan: 6×30 sec, 4×1 min, 4×2 min, 21×5 min (0-120 min)
Reconstructed PET imaging data volumes were transferred to the image processing PMOD software package (PMOD Technologies, Zurich, Switzerland) where the images were motion and decay corrected, realigned onto the subject MRI and subsequently normalized into the standard MNI (Montreal Neurological Institute) space where volumes of interest (VOIs) were defined from a template (see e.g., Hammers et al, Adult brain maximum probability map (“Hammersmith atlas”; n30r83) in MNI space. 2008). The subject MRI was segmented into grey matter, white matter, and CSF maps. Average activity concentration (kBq/cc) within each VOI, constrained to grey matter voxels for cortical regions, were determined and time activity curves (TACs) were generated. TACs were extracted from the following VOIs: caudate and putamen (striatum), midbrain, cerebellar and occipital cortices. TACs and were expressed in standard uptake value (SUV) units (g/mL) by normalizing with the weight of the subject and the injected dose. The occipital cortex was used as a reference region to normalize activity in target regions to generate SUVr images. For visualization, standard uptake value ratio (SUVr) images were computed between 60-120 min. Non-displaceable binding potential (BPND), the primary outcome measure, was estimated with noninvasive Logan graphical analysis (NI-LGA, t*=20 min) in caudate, putamen and midbrain using the occipital cortex as the reference region. Percent measured occupancy (OM) of NBI-750142 (drug) by region was computed according to the Equation 3-1 at each of the post-dose timepoints, T1 (1.5 h post dose) and T2 (18 h post dose).
Post-hoc exploratory analysis applied an Upregulation model (Equation 3-3), in order to account for the apparent ‘negative occupancy’ values observed at T2 (BPND values at T2 were unexpectedly higher than corresponding BPND values at baseline). […]

[1] = Cohort 4, 60 mg, Subject 1, Midbrain
[2] = Cohort 4, 60 mg, Subject 1, Putamen
[3] = Cohort 4, 60 mg, Subject 2, Caudate
[4] = Cohort 4, 60 mg, Subject 2, Midbrain
[5] = Cohort 4, 60 mg, Subject 2, Putamen
[6] = Cohort 5A, 10 mg, Subject 1, Caudate (2nd line so labelled)
[7] = Cohort 5A, 10 mg, Subject 1, Caudate
[8] = Cohort 5A, 10 mg, Subject 1, Midbrain
[9] = Cohort 5A, 10 mg, Subject 2, Caudate (2nd line so labelled)
[10] = Cohort 5A, 10 mg, Subject 2, Caudate
[11] = Cohort 5A, 10 mg, Subject 2, Midbrain
[12] = Cohort 5B, 10 mg, Subject 3, Caudate
[13] = Cohort 5B, 10 mg, Subject 3, Midbrain
[14] = Cohort 5B, 10 mg, Subject 3, Putamen
[15] = Cohort 5B, 10 mg, Subject 4, Caudate
[16] = Cohort 5B, 10 mg, Subject 4, Midbrain
[17] = Cohort 5B, 10 mg, Subject 4, Putamen
[18] = Upregulation model, post hoc exploratory, both T1 and T2 data
[19] = average of caudate and putamen, 100 mg

VMAT2, sequence (Q05940 whole entry): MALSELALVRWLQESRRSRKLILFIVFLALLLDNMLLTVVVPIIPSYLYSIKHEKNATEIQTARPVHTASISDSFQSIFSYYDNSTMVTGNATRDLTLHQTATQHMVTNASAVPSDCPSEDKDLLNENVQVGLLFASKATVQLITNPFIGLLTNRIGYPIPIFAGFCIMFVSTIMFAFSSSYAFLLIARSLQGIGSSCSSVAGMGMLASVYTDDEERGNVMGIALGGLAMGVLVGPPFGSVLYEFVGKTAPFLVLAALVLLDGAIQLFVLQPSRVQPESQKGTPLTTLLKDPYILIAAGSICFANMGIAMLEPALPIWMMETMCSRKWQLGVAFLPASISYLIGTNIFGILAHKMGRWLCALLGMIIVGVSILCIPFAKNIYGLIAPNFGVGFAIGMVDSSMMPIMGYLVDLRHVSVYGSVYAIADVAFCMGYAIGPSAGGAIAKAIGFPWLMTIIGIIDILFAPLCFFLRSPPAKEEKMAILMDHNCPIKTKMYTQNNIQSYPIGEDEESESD

SMILES: COc1cc2c(cc1OC)[C@H]1CN(C)[C@H](CC(C)(C)C)CN1CC2 [NBI-750142]
- [^18F]AV-133 BPND T2 (Cohort 4, 60 mg, Subject 1, Caudate): 1.69
- NBI-750142 T1 Occ [1]: 55%
- [^18F]AV-133 BPND T1 [1]: 0.20
- NBI-750142 T2 Occ [1]: −1%
- [^18F]AV-133 BPND T2 [1]: 0.44
- NBI-750142 T1 Occ [2]: 39%
- [^18F]AV-133 BPND T1 [2]: 1.10
- NBI-750142 T2 Occ [2]: −12%
- [^18F]AV-133 BPND T2 [2]: 2.01
- NBI-750142 T1 Occ [3]: 11%
- [^18F]AV-133 BPND T1 [3]: 1.26
- NBI-750142 T2 Occ [3]: −13%
- [^18F]AV-133 BPND T2 [3]: 1.61
- NBI-750142 T1 Occ [4]: 27%
- [^18F]AV-133 BPND T1 [4]: 0.28
- NBI-750142 T2 Occ [4]: −12%
- [^18F]AV-133 BPND T2 [4]: 0.42
- NBI-750142 T1 Occ [5]: 8%
- [^18F]AV-133 BPND T1 [5]: 1.73
- NBI-750142 T2 Occ [5]: −12%
- [^18F]AV-133 BPND T2 [5]: 2.09
- Occupancy at T2 in striatum (Cohort 4 at 60 mg, subject 1, 18 h post dose): −10%
- Occupancy at T2 in striatum (Cohort 4 at 60 mg, subject 2, 18 h post dose): −12%
- Occupancy at T2 in striatum (Cohort 5A at 10 mg, subject 1, 18 h post dose): −3%
- Occupancy at T2 in striatum (Cohort 5A at 10 mg, subject 2, 18 h post dose): −4%
- NBI-750142 T1 Occ [6]: 26%
- [^18F]AV-133 BPND T1 [6]: 1.76
- NBI-750142 T2 Occ [6]: −4%
- [^18F]AV-133 BPND T2 [6]: 2.48
- NBI-750142 T1 Occ [7]: 27%
- [^18F]AV-133 BPND T1 [7]: 1.14
- NBI-750142 T2 Occ [7]: −2%
- [^18F]AV-133 BPND T2 [7]: 1.58
- NBI-750142 T1 Occ [8]: 41%
- [^18F]AV-133 BPND T1 [8]: 0.31
- NBI-750142 T2 Occ [8]: 1%
- [^18F]AV-133 BPND T2 [8]: 0.52
- NBI-750142 T1 Occ [9]: 9%
- [^18F]AV-133 BPND T1 [9]: 2.88
- NBI-750142 T2 Occ [9]: −6%
- [^18F]AV-133 BPND T2 [9]: 3.34
- NBI-750142 T1 Occ [10]: 11%
- [^18F]AV-133 BPND T1 [10]: 1.98
- NBI-750142 T2 Occ [10]: −3%
- [^18F]AV-133 BPND T2 [10]: 2.29
- NBI-750142 T1 Occ [11]: 20%
- [^18F]AV-133 BPND T1 [11]: 0.43
- NBI-750142 T2 Occ [11]: −19%
- [^18F]AV-133 BPND T2 [11]: 0.65
- Occupancy at T2 in striatum (Cohort 5B at 10 mg, subject 3, 18 h post dose): −14%
- Occupancy at T2 in striatum (Cohort 5B at 10 mg, subject 4, 18 h post dose): 5%
- NBI-750142 T1 Occ [12]: −2%
- [^18F]AV-133 BPND T1 [12]: 2.51
- NBI-750142 T2 Occ [12]: −14%
- [^18F]AV-133 BPND T2 [12]: 2.81
- NBI-750142 T1 Occ [13]: 19%
- [^18F]AV-133 BPND T1 [13]: 0.40
- NBI-750142 T2 Occ [13]: −14%
- [^18F]AV-133 BPND T2 [13]: 0.56
- NBI-750142 T1 Occ [14]: −2%
- [^18F]AV-133 BPND T1 [14]: 2.90
- NBI-750142 T2 Occ [14]: −14%
- [^18F]AV-133 BPND T2 [14]: 3.25
- NBI-750142 T1 Occ [15]: −4%
- [^18F]AV-133 BPND T1 [15]: 2.35
- NBI-750142 T2 Occ [15]: 4%
- [^18F]AV-133 BPND T2 [15]: 2.16
- NBI-750142 T1 Occ [16]: 0%
- [^18F]AV-133 BPND T1 [16]: 0.52
- NBI-750142 T2 Occ [16]: −2%
- [^18F]AV-133 BPND T2 [16]: 0.53
- NBI-750142 T1 Occ [17]: −3%
- [^18F]AV-133 BPND T1 [17]: 3.03
- NBI-750142 T2 Occ [17]: 6%
- [^18F]AV-133 BPND T2 [17]: 2.75
- EC50 (Emax model, T1 occupancy values alone): 76.7 nM
- EC50 (NBI-750142 plasma concentration vs VMAT2 striatal occupancy) (Emax model, both T1 and T2 occupancy values): 0.0352 µg/mL (≈ 0.106 µM)
- upregulation factor (URF) (Upregulation model, both T1 and T2 data): 2.76
- EC50 (NBI-750142 plasma concentration vs VMAT2 striatal occupancy) [18]: 0.0063 µg/mL (≈ 0.0189 µM)
- EC50 [18]: 19.5 nM
- [^18F]AV-133 striatal uptake at T2 (across all cohorts): appeared to return to, or slightly exceed, baseline levels
- Occupancy in the striatum at T1, lower end of range (average of caudate and putamen, 10 mg): −4%
- Occupancy in the striatum at T1, upper end of range [19]: 76%
- Occupancy in the striatum at T2, upper end of range [19]: 14%
- Occupancy in the striatum at T2, lower end of range (average of caudate and putamen, 200 mg): −28%
